Patent US20040214798A1 (priority 2003, published 2004)
Values joined by “and” are separate entries in the source; they are usually repeats but may differ in a detail not shown here. Equal entries are not always repeated. Where two headings read alike, the source gives them in different places.

Assays:
E. coli nitroreductase [1] = target: T1, E. coli nitroreductase (Escherichia coli, UniProt P38489); assay type: biochemical
[2] = tested on: SKOV3 human ovarian carcinoma cells infected with adenovirus expressing E. coli nitroreductase (NR+); assay: Cytotoxicity in SKOV3 cells infected with adenovirus expressing E. coli nitroreductase (NR+), MTT; assay type: cell-based; details: for Ratio of IC50 values (NR−/NR+): SKOV3, 18 hour drug exposure; for IC50: adenovirus NR, 100 pfu/cell
[3] = tested on: SKOV3 human ovarian carcinoma cells not infected (NR−); assay: cells; assay type: cell-based
T116 cells = assay: cells; assay type: cell-based, Chinese hamster
E. coli nitroreductase [4] = target: T1, E. coli nitroreductase; assay: in vitro; details: pH 7
hDT7 cells = assay: cells; assay type: cell-based, Chinese hamster; details: read-out: IC50 hDT7
F179 cells [5] = assay: cells; details: Cricetulus griseus, read-out: IC50 F179
F179 cells [6] = details: read-out: IC50 F179
E. coli nitroreductase [7] = target: T1, E. coli nitroreductase; details: pH 7
[8] = 200 μM compound, 1 mM NADH, 1.8 μg E. coli nitroreductase, 10 mM phosphate buffer pH 7.0, 37° C., 250 μL, UV 340 nm
[9] = read-out: IC50 in SKOV3 NR+, 18 hour drug exposure
[10] = Homo sapiens, SK-OV-3, 18 h, read-out: IC50 in SKOV3 NR−
[11] = Cricetulus griseus, V79, 1 h, read-out: IC50 T116
[12] = Cricetulus griseus, V79, 72 h, read-out: IC50 T116
[13] = Homo sapiens, SK-OV-3, 18 h, read-out: IC50 in SKOV3 NR+, 18 hour drug exposure
[14] = 18 hour drug exposure, read-out: IC50 in SKOV3 NR+
[15] = 18 hour drug exposure; uninfected cells; read-out: IC50 in SKOV3 NR−
[16] = 72 hours drug exposure, E. coli nitroreductase-expressing cells, read-out: IC50 T116
[17] = 72 hours drug exposure, vector-only control cells
[18] = 72 hours drug exposure, human NQO1-expressing cells

T1 sequence (P38489 whole entry): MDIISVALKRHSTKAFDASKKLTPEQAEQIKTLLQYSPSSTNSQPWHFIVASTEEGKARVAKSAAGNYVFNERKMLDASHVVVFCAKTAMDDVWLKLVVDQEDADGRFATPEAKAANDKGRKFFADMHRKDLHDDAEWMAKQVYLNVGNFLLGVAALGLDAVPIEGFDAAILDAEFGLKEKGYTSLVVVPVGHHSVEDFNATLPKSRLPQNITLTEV

Structure (SMILES)	NR Assay vi (initial velocity) (E. coli nitroreductase [1]; [8]) [nmol/min]	Ratio of IC50 values (NR−/NR+) [2]	IC50 [3, 10] [µM]	IC50 [2, 13] [µM]	Ratio of IC50 values (F179/T116) (T116 cells)	IC50 [2, 14] [µM]	NR assay t1/2 (half-life of reduction by E. coli nitroreductase) (E. coli nitroreductase [7]) [min]	further results
CC(OP(N)(=O)N(CCCl)CCCl)c1ccc([N+](=O)[O-])cc1 (single isomer, unassigned) [Compound 15d-A, 1-(4-nitrophenyl)ethyl N,N-bis(2-chloroethyl)phosphordiamidate]	2.53	>556	> 1000					IC50 [2, 9]: 1.8 µM
CC(OP(N)(=O)N(CCCl)CCCl)c1ccc([N+](=O)[O-])cc1 (single isomer, unassigned) [Compound 15d-B, 1-(4-nitrophenyl)ethyl N,N-bis(2-chloroethyl)phosphordiamidate]	1.65	>250						IC50 [2, 9]: 4 µM; IC50 ([3]; read-out: IC50 in SKOV3 NR−; 18 hour drug exposure; uninfected cells): > 1000 µM
NC(=O)c1cc(N2CC2)c([N+](=O)[O-])cc1[N+](=O)[O-] [CB1954, 5-(aziridin-1-yl)-2,4-dinitrobenzamide, reference compound]				4				IC50 (T116 cells; [11]): 0.306 µM; IC50 (T116 cells; [12]): 0.036 µM; half-life (E. coli nitroreductase [4]; E. coli): 5 min; IC50 ([3]; Homo sapiens, SK-OV-3; 18 hour drug exposure; uninfected cells; read-out: IC50 in SKOV3 NR−): 600 µM; IC50 (hDT7 cells; Cricetulus griseus, V79, 72 h): 1.7 µM; IC50 (F179 cells [5]; 1 h): > 100 µM; IC50 (F179 cells [5]; 72 h): 254 µM
O=[N+]([O-])c1ccc2c(c1)OP(=O)(N(CCCl)CCCl)NC2 (stereo not shown) [Compound 9b, 7-Nitro-2-[bis(2-chloroethyl)amino]-1,3,2-benzoxazaphosphorinane-2-oxide]		1.2	510	410	1.3			IC50 (T116 cells; [12]): 48 µM; half-life (E. coli nitroreductase [4]): 11 min; IC50 (hDT7 cells; Cricetulus griseus, V79, 72 h): 48 µM; IC50 (F179 cells [5]; 72 h): 61 µM
O=[N+]([O-])c1ccc2c(c1)NP(=O)(N(CCCl)CCCl)OC2 (stereo not shown) [Compound 9c, 7-Nitro-2-[bis(2-chloroethyl)amino]-3,1,2-benzoxazaphosphorinane-2-oxide]	1.63	9.8	540	55	>33			IC50 (T116 cells; [12]): 3 µM; half-life (E. coli nitroreductase [4]): 13 min; IC50 (hDT7 cells; Cricetulus griseus, V79, 72 h): > 100 µM; IC50 (F179 cells [5]; 72 h): > 100 µM
O=[N+]([O-])c1ccc2c(c1)NP(=O)(N(CCCl)CCCl)NC2 (stereo not shown) [Compound 9d, 7-Nitro-2-[bis(2-chloroethyl)amino]-1,3,2-benzodiazaphosphorinane-2-oxide]					˜1			IC50 (T116 cells; [12]): > 100 µM; half-life (E. coli nitroreductase [4]): 7.8 min; IC50 (hDT7 cells; Cricetulus griseus, V79, 72 h): > 100 µM; IC50 (F179 cells [5]; 72 h): > 100 µM
NP(=O)(OCc1ccccc1[N+](=O)[O-])N(CCCl)CCCl (stereo not shown) [Compound 15a, 2-nitrobenzyl N,N-bis(2-chloroethyl)phosphordiamidate]	0.46	11	950	90				
NP(=O)(OCc1cccc([N+](=O)[O-])c1)N(CCCl)CCCl (stereo not shown) [Compound 15b, 3-nitrobenzyl N,N-bis(2-chloroethyl)phosphordiamidate]	1.23	3.4	820	240				
NP(=O)(OCc1ccc([N+](=O)[O-])cc1)N(CCCl)CCCl (stereo not shown) [Compound 15c, 4-nitrobenzyl N,N-bis(2-chloroethyl)phosphordiamidate]	2.31	>909	> 1000	1.1	20,833 and >10,000			IC50 (T116 cells; [11]): 0.01 µM; IC50 (T116 cells; Cricetulus griseus, V79, 1 h, read-out: IC50 in E. coli nitroreductase-expressing T116 cells): 0.01 µM; IC50 (T116 cells; [12]): 0.003 µM; IC50 (T116 cells; Cricetulus griseus, V79, 72 h, read-out: IC50 in E. coli nitroreductase-expressing T116 cells): 0.003 µM; IC50 (hDT7 cells; Cricetulus griseus, V79, 72 h): 27 µM; IC50 (F179 cells [5]; 1 h): > 100 µM; IC50 (F179 cells [5]; 72 h): 62.5 µM
NC(=O)c1cc(COP(N)(=O)N(CCCl)CCCl)ccc1[N+](=O)[O-] (stereo not shown) [Compound 15e, 3-carboxamide-4-nitrobenzyl N,N-bis(2-chloroethyl)phosphordiamidate]	0.38	>24				41		IC50 [3, 15]: > 1000 µM
COC(=O)c1cc(COP(N)(=O)N(CCCl)CCCl)ccc1[N+](=O)[O-] (stereo not shown) [Compound 15f, 3-methoxycarbonyl-4-nitrobenzyl N,N-bis(2-chloroethyl) phosphordiamidate]	0.30	190				2.1		IC50 [3, 15]: 400 µM
Cc1cc(COP(N)(=O)N(CCCl)CCCl)ccc1[N+](=O)[O-] (stereo not shown) [Compound 15g, 3-methyl-4-nitrobenzyl N,N-bis(2-chloroethyl)phosphordiamidate]	1.61	155	510	3.3				
COc1cc(COP(N)(=O)N(CCCl)CCCl)ccc1[N+](=O)[O-] (stereo not shown) [Compound 15h, 3-methoxy-4-nitrobenzyl N,N-bis(2-chloroethyl)phosphordiamidate]	4.40	294	910	3.1				
COc1cc([N+](=O)[O-])ccc1COP(N)(=O)N(CCCl)CCCl (stereo not shown) [Compound 15i, 2-methoxy-4-nitrobenzyl N,N-bis(2-chloroethyl)phosphordiamidate]	12.56	>556	> 1000	1.8				
O=[N+]([O-])c1ccc([C@H]2CCO[P@@](=O)(N(CCCl)CCCl)N2)cc1 [cis-13b, 2-[Bis(2-chloroethyl)amino]-4-(p-nitrophenyl)-2H-1,3,2-oxazaphosphorinane 2-oxide]		>2			>2.2	510	11.9	IC50 (T116 cells; read-out: IC50 T116): 45.3 µM; IC50 (F179 cells [6]): > 100 µM; IC50 [3, 15]: > 1000 µM; IC50 (hDT7 cells): > 100 µM
O=[N+]([O-])c1ccc([C@@H]2CCN[P@](=O)(N(CCCl)CCCl)O2)cc1 [cis-13c, 2-[Bis(2-chloroethyl)amino]-6-(p-nitrophenyl)-2H-1,3,2-oxazaphosphorinane 2-oxide]	2.33	151				4.5	5.2	IC50 [3, 15]: 680 µM; IC50 (hDT7 cells): > 100 µM
O=[N+]([O-])c1ccc([C@H]2CCN[P@@](=O)(N(CCCl)CCCl)N2)cc1 [cis-13d, 2-[Bis(2-chloroethyl)amino]-4-(p-nitrophenyl)-2H-1,3,2-diazaphosphorinane 2-oxide]					12.3		6.4	IC50 (T116 cells; read-out: IC50 T116): 4.6 µM; IC50 (F179 cells [6]): 56.8 µM; IC50 (hDT7 cells): 46.8 µM
O=[N+]([O-])c1ccc([C@H]2CCO[P@@](=O)(N(CCCl)CCCl)N2)cc1 [trans-13b, 2-[Bis(2-chloroethyl)amino]-4-(p-nitrophenyl)-2H-1,3,2-oxazaphosphorinane 2-oxide]		3.3			>1.9	250	2.9	IC50 (T116 cells; [16]): 51.5 µM; IC50 (F179 cells [6]; [17]): > 100 µM; IC50 ([3]; read-out: IC50 in SKOV3 NR−): 820 µM; IC50 (hDT7 cells; [18]): > 100 µM
O=[N+]([O-])c1ccc([C@@H]2CCN[P@](=O)(N(CCCl)CCCl)O2)cc1 [trans-13c, 2-[Bis(2-chloroethyl)amino]-6-(p-nitrophenyl)-2H-1,3,2-oxazaphosphorinane 2-oxide]		>200			22,519	5	3.9	Ratio of IC50 values (F179/T116) (T116 cells; 1 hour drug exposure): >602; IC50 (T116 cells; 1 hour drug exposure, read-out: IC50 T116): 0.166 µM; IC50 (T116 cells; [16]): 0.027 µM; NR Assay vi (initial velocity) (E. coli nitroreductase [1]; pH 7): 3.54 nmol/min; IC50 (F179 cells [6]; 1 hour drug exposure): > 100 µM; IC50 ([3]; read-out: IC50 in SKOV3 NR−): > 1000 µM; IC50 (hDT7 cells; [18]): > 100 µM
O=[N+]([O-])c1ccc([C@H]2CCN[P@@](=O)(N(CCCl)CCCl)N2)cc1 [trans-13d, 2-[Bis(2-chloroethyl)amino]-4-(p-nitrophenyl)-2H-1,3,2-diazaphosphorinane 2-oxide]					>2.1		4.2	IC50 (T116 cells; [16]): 48.3 µM; IC50 (F179 cells [6]; [17]): > 100 µM; IC50 (hDT7 cells; [18]): > 100 µM
